Results on 2 compounds are retold here after publication PMC5471521, “Novel selective β1-adrenoceptor antagonists for concomitant cardiovascular and respiratory disease” (The FASEB Journal, 2017).

Broadly, the IC50 is the concentration that inhibits the measured activity by half. As a reminder, the Kd is the free concentration of one partner at which half of the binding sites on the other are occupied at equilibrium, for simple one-to-one binding. By hepatocyte CLint is commonly meant the capacity of the preparation to metabolise the compound, expressed as a volume cleared per time. A low value points to greater metabolic stability.

A short description of data set [1]: Lipophilicity (chromatographic logD). The data set is classed as physicochemical. To be noted: octanol/water, estimated from chromatographic retention. On the procedure: Octanol–water partition coefficient values (logD) of NDD-713 and -825 were estimated as described in Lombardo et al. ([49]) by correlation of the chromatographic retention properties of compounds against the characteristics of standard compounds with known partition coefficient values. Studies were carried out by CDCO.

The target of another data set is CYP2D6 (Homo sapiens, UniProt P10635). The data set is described as follows: P450 inhibition in human liver microsomes. The data set is classed as in vitro ADME. The arrangement: in human liver microsomes (batch 34689 for CYP1A2 and CYP3A4; batch 0910251 for CYP2C9, CYP2C19, and CYP2D6); tissue batch 0910251; host or cells: human liver microsomes. To be noted: 0.25–20 μM, hydrochloride salts used. The method, then:
Concentrations of NDD-713.HCl and -825.HCl (0.25–20 μM) were incubated in triplicate (37°C for 4–40 min) with substrates specific for individual P450 isoforms (see Supplemental Data for full details) in human liver microsomes (batch 34689 for CYP1A2 and CYP3A4; batch 0910251 for CYP2C9, CYP2C19, and CYP2D6) at protein concentrations of 0.4 mg/ml (CYP1A2, CYP2C9, CYP2D6 and CYP3A4/5) or 1.0 mg/ml (CYP2C19) and a total organic solvent concentration <1%. Reaction was initiated by addition of NADPH-regenerating system and samples were quenched by addition of ice-cold acetonitrile, which contained 0.15 μg/ml diazepam as an internal standard, before determination of the concentration of specific metabolites by LC-MS. Compound IC50 values (and positive control) for each P450 isoform was assessed according to %reduction in formation of the specific metabolite (maximal metabolite formation occurring in the absence of inhibitor). […] Control samples were included to confirm that the LC-MS assay was not affected by test compounds (and potential metabolites). Studies were carried out by CDCO.

Another data set concerns the target T1, CYP3A4 (Homo sapiens, UniProt P08684).
T1 construct: purchased BD Biosciences
The data set is described as follows: P450 in vitro clearance, recombinant Supersomes. To be noted: 2 μM, hydrochloride salts used. It is filed as in vitro ADME. On the procedure: NDD-713.HCl and -825.HCl (2 μM) and cytochrome P450 (P450) reference substrates (see Supplemental Data for full details) were incubated (37°C) with selected recombinant human P450 isoforms (CYP1A2, CYP2A6, CYP2B6, CYP2C8, CYP2C9, CYP2C19, CYP2D6 CYP2E1, and CYP3A4) in heterologously expressed P450 Supersomes (BD Biosciences) that were suspended in […] Tris-HCl buffer (pH 7.4; for CYP2C9) or 100 mM phosphate buffer (pH 7.4; for the other isoforms) at final P450 concentrations of 85 pmol/ml. Reactions were initiated by additions of an NADPH-regenerating system and quenched at time points over 60 min (reference probes) or 120 min (test compounds) by acetonitrile. Quenched samples were centrifuged and supernatants were collected. NDD-713, -825, and probe metabolites were determined by UPLC-MS relative to calibration standards prepared in quenched matrix, and %substrate that remained was calculated relative to the initial sample concentration. The %substrate that remained vs. time was fitted to exponential decay functions to determine the pseudo first-order rate constant (k/min) for substrate depletion. These were normalized to P450 concentrations (pmol/ml) to obtain in vitro CLint values: CLint, in vitro (μl/min/pmol P450) = [k (min^−1)/P450 concentration […]] × 1000. Studies were carried out by CDCO.

In another data set the target is T2, human β3-AR (Homo sapiens, UniProt P13945).
T2 construct: expressed in transfected cells
T2 sequence (P13945 whole entry): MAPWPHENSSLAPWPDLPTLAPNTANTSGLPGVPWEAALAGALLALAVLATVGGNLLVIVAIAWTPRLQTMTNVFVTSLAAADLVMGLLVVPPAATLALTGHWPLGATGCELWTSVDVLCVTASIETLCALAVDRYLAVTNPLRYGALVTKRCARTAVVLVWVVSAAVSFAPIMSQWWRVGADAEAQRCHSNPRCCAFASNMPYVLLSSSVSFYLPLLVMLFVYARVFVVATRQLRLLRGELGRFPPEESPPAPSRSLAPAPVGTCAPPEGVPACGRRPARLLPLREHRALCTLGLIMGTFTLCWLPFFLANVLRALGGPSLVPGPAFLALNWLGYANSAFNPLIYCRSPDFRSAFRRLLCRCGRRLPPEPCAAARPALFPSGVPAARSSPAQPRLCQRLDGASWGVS
The data set is described as follows: Radioligand binding at human β3-AR. The method, then:
Chinese hamster ovary (CHO) cells that stably express human β1-ARs (CHO-β1: 1146 fmol/mg protein), human β2-ARs (CHO-β2: 466 fmol/mg protein), or human β3-ARs (CHO-β3: 790 fmol/mg protein) were grown as previously described ([11]). Human bronchial smooth muscle cells were obtained from Lonza (Basel, Switzerland) and grown in manufacturer media. Rat β-AR binding experiments (DNA from cDNA Resource Centre, Bloomsburg, PA, USA) were conducted by using transiently transfected CHO cells ([44]).
Confluent cells were examined (96-well plates, 2 h incubation at 37°C) as previously described ([11]) with ^3H-CGP12177 at 0.43–3.03 nM. Propranolol (10 μM) defined nonspecific binding. Kd values were derived from IC50 values by using the Cheng-Prusoff equation as previously described ([11]).

The target of data set [2] is T3, human β1-AR (Homo sapiens, UniProt P08588).
T3 construct: expressed in transfected cells
T3 sequence (P08588 whole entry): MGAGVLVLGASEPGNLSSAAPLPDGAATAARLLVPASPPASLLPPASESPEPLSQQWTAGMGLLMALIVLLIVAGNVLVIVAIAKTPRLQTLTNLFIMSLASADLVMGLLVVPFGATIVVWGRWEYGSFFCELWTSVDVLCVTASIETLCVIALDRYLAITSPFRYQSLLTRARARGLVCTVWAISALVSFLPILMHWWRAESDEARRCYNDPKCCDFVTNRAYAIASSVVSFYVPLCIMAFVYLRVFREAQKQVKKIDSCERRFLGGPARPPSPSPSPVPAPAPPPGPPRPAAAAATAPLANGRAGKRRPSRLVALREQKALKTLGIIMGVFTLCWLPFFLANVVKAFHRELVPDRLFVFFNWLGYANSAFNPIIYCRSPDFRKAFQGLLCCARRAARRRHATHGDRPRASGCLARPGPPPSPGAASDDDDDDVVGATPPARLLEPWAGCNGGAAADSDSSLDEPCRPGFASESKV
The data set is described as follows: Antagonism of cimaterol-induced 3H-cAMP accumulation in CHO-β1 cells. It is filed as cell-based. To be noted: for Schild slope: CHO-β1 cells, 3 antagonist concentrations, 1 = competitive antagonism; for Kd: Gaddum equation, cimaterol agonist, mean ± SEM, read-out: Log Kd,β1 (converted); for SI1b (in vitro inhibition of functional response) = Kd,β2/Kd,β1: Kd values from antagonism of cimaterol-induced 3H-cAMP accumulation, Table 2; for β1 vs. β2 selectivity Kd,β2/Kd,β1: from antagonism of cimaterol-induced 3H-cAMP accumulation. On the procedure:
(§1) Confluent cells were examined (24-well plates, 5 h incubation at 37°C) as described in Baker ([45]). Antagonist Kd values were calculated from a rightward shift of the agonist concentration response curve by using the Gaddum equation as previously described ([46]).
On the technique in general: Cyclic AMP is a second messenger, typically raised through Gs and lowered through Gi signalling.

The target in data set [3] is T3, human β1-AR. As to the kind of experiment: 3H-CGP12177 whole-cell binding in CHO-β1 cells. To be noted: for Kd: CHO-β1 cells, mean ± SEM, read-out: Human β1-AR Log Kd (converted); for SI1a (in vitro binding) = Kd,β2/Kd,β1: Kd values from 3H-CGP12177 whole-cell binding, Table 1.
Data set [4] in a line: Metabolic stability, rat hepatocytes. It is filed as in vitro ADME. The method, then:
NDD-713.HCl and -825.HCl were incubated (0.02, 0.1, or 0.5 μM at 37°C, 120 min) with human (XenoTech, Kansas City, KS, USA) or rat liver microsomes (BD Biosciences, Brea, CA, USA) at 0.4 mg/ml protein concentration. Metabolic reaction was initiated by addition of NADPH-regenerating system or NADPH-regenerating system with uridine diphosphate glucuronic acid. Samples were quenched at time points by acetonitrile addition. Control samples, which contained neither NADPH, nor uridine diphosphate glucuronic acid, were monitored for degradation. Compound concentrations were determined by ultraperformance LC-MS (UPLC-MS) relative to calibration standards that were prepared in quenched liver microsomes and fitted to exponential decay functions to determine first-order rate constants (k) for substrate depletion. These were used to calculate in vitro intrinsic clearance (CLint) values: CLint = k/microsomal protein content (0.4 mg protein/ml). Metabolic stability assays that used rat liver cytosol (BD Biosciences), human cryopreserved hepatocytes, or rat hepatocytes were carried out similarly. Average viable cell concentrations were determined by Trypan Blue exclusion methods (in the absence of test compounds). Studies were carried out by CDCO.

For a further data set, the target named is T4, human β2-AR (Homo sapiens, UniProt P07550).
T4 construct: expressed in transfected cells
T4 sequence (P07550 whole entry): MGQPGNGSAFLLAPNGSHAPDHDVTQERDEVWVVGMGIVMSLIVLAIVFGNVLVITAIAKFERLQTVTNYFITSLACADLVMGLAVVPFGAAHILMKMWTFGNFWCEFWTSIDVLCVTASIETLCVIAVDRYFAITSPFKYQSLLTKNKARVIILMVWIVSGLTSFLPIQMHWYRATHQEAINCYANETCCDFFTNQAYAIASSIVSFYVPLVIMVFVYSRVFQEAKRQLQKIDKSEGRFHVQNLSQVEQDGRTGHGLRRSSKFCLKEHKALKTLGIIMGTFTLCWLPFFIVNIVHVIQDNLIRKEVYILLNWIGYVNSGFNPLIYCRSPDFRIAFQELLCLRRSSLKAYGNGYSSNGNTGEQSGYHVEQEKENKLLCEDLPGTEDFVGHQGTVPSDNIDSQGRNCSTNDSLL
As to the kind of experiment: Antagonism of cimaterol-induced 3H-cAMP accumulation in CHO-β2 cells. The data set is classed as cell-based. To be noted: cimaterol agonist, mean ± SEM, read-out: Log Kd,β2 (converted). On the procedure: as §1

Setting [5] is: pH 3, chromatographic estimate, read-out: Distribution coefficient, pH 3 (gLogDpH 3).
Where [6] appears, read: pH 7.4, chromatographic estimate, read-out: Distribution coefficient, pH 7.4 (gLogDpH 7.4).

Read-outs that look alike come from different tables or passages of the source.

T1 sequence (P08684 whole entry): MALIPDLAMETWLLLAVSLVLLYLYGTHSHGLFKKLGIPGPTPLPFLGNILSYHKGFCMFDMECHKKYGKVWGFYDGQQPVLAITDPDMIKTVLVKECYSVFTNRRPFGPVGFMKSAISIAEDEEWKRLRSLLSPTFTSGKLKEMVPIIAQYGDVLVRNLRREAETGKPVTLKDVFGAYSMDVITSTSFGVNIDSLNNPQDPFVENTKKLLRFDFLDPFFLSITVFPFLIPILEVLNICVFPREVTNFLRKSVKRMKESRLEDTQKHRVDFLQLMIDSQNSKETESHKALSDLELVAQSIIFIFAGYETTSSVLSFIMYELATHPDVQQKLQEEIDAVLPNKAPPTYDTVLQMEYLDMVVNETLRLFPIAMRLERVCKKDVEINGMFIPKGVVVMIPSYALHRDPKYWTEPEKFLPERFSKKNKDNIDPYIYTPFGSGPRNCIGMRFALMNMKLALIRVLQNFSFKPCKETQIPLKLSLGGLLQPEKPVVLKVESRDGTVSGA
Sequence of CYP2D6 (P10635 whole entry, canonical isoform): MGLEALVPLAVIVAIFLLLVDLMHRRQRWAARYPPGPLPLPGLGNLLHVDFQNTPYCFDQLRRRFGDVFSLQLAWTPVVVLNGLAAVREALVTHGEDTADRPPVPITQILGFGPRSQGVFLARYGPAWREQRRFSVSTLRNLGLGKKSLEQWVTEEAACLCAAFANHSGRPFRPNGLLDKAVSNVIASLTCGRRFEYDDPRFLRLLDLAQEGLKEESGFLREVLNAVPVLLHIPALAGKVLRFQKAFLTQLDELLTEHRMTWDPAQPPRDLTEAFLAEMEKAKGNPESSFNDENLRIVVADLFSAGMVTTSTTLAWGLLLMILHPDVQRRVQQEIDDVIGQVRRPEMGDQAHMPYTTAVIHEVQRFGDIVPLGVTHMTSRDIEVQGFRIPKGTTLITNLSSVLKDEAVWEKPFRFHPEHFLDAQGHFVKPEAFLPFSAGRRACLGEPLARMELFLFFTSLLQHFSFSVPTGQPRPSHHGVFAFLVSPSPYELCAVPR

Turning to `NC(=O)c1ccc(OCCNC[C@H](O)COc2ccc3c(c2)OC[C@@H](COCC2CC2)O3)cc1` [NDD-713], the chromatographic logD in data set [1] (setting [5]) is 1.7. In addition, the chromatographic logD in data set [1] (setting [6]) is 2.3. Moreover, the IC50 at CYP2D6 is greater than 20000 nM. For the same compound, the “P450 in vitro clearance CLint, CYP3A4” value at CYP3A4 was found to be 0.07 μl/min/pmol P450. Moreover, at human β3-AR, the “Affinity at human β3-AR” value was “so low that accurate measurements were not possible”. For the same compound, on human β1-AR [2], the Schild slope amounted to 1.06 ± 0.03, the Kd was 3.02 nM, the “SI1b (in vitro inhibition of functional response) = Kd,β2/Kd,β1” value is given as 1202 and the “β1 vs. β2 selectivity Kd,β2/Kd,β1” value was 1202. On human β1-AR [3], the Kd was 15.1 nM and the “SI1a (in vitro binding) = Kd,β2/Kd,β1” value is 589. In addition, the “Human β1 vs. β2 selectivity Kd,β2/Kd,β1” value on human β1-AR [3] (from 3H-CGP12177 whole-cell binding) stood at 589. Moreover, the CLint rat hepatocytes entry in data set [4] is “minimal”. Also, on human β2-AR, the Kd was 3630 nM.
As to `O=C1NCc2cc(OCCNC[C@H](O)COc3ccc4c(c3)OC[C@@H](COCC3CC3)O4)ccc21` [NDD-825], in data set [1] (setting [5]), the chromatographic logD is 1.5. Besides, in data set [1] (setting [6]), the chromatographic logD is 2. Also, the 50% inhibitory concentration (IC50) at CYP2D6 was greater than 20000 nM. Besides, the “P450 in vitro clearance CLint, CYP3A4” value on CYP3A4 worked out at 0.17 μl/min/pmol P450. Moreover, the “Affinity at human β3-AR” value on human β3-AR is reported as “so low that accurate measurements were not possible”. For the same compound, on human β1-AR [2], the Schild slope is recorded as 1.04 ± 0.02, the Kd is 1.02 nM, the “SI1b (in vitro inhibition of functional response) = Kd,β2/Kd,β1” value was 1738 and the “β1 vs. β2 selectivity Kd,β2/Kd,β1” value was found to be 1738. For the same compound, at human β1-AR [3], the dissociation constant (Kd) was 5.25 nM and the “SI1a (in vitro binding) = Kd,β2/Kd,β1” value was 1023. Also, in data set [4] (hepatocytes), the hepatocyte CLint was 5 µL/min/1e6 cells. Also, the Kd on human β2-AR was 1780 nM.
